According to patent publication EP0072027A1, “Antiviral compounds” (THE WELLCOME FOUNDATION LIMITED, priority 1981, dated 1983):
In brackets after ≈: the same amount, converted by molar mass.

Experiments:
herpes virus = experiment: In vivo activity against herpetic encephalitis, intracerebrally infected mice (Example 17); details: for Mean reciprocal survival time: 100 mg/kg oral twice daily for 5 days, around 300 x LD50 intracerebrally, 14 days observation
Protocol: Swiss mice weighing 12-15 g were anaesthetised with ether and inoculated intracerebrally with 0.025 ml of a tissue culture preparation of type herpes virus. The mice were examined daily for sign of herpes encephalitis i.e. cerebral irritation leading to paralysis, coma and death. […] The viscera of the mice were examined for signs of infection with bacteria or other agents and if no abnormalities were found the brains were removed asceptically and ground to a smooth paste. The homogenate was resuspended in 4 ml of tissue culture maintenance medium to each brain, and mixed with glycerol in the ratio 2:1. Mouse brains weigh approximately 400 mg and the preparation thus represented a dilution of 10^-1.
The stocks of virus thus prepared were titrated in mice to determine the LD50 titre by inoculating mice intracerebrally with 10-fold dilutions of the stock preparation of virus and subsquently examined twice daily for signs of infection. The LD50 titre was calculated by the Karber method.
Groups of 5 mice were infected intracerebrally with stock virus diluted to give a dose of around 300 x LD50. The compound under test was administered twice daily as a suspension by the oral route at a dose of 100 mg/kg. The animals were examined twice daily and survival times were recorded to the nearst half-day. Dosing was carried out for 5 days and the total period of observation was 14 days. Survival times were converted to recipocals and the mean survival time was determined for each group L. Bauer, D. J., Brit. J. Exp. Path., 1960, 41, 130).

[1] = tested on: EHV-1 Pneumabort vaccine strain; experiment: Comparative in vivo activity against equine rhinopneumonitis virus in hamsters, medicated drinking water (Example 15); design: species or system Syrian hamsters; details: for Cumulative mortality (out of 15) on day: water conc. 0.075 mg/ml, average intake 6.6-6.8 mg/kg/day
Protocol: 50 male WO/CR Syrian hamsters were caged randomly in 10 groups of 5, with water and food (seed mix) ad lib. Hamsters were weighed on Days -3, 0, 4, and/or- at death/sacrifice. Water consumption was recorded over Days -3 to 0 to 4.
EHV-1 Pneumabort vaccine strain stored as a 10^-1 dilution, was further diluted 10^-1 in PBS for infection. On Day 0, hamsters in Groups 1-9 received 0.2 ml virus inoculum s/c in the left flank equivalent to about 2 x 10^5 PFU (plaque-forming units).
457U and 759U were dissolved in drinking water at 0.075 mg/ml. Assuming an average daily intake of […], this would result in a daily dose of around 10 mg/kg. Medicated water was provided from approximately 5 hours pre-infection for 96 hours, as below
The drug intake was calculated from the weight of the animals and the water consumption recorded over the period of the experiment.

Solubility in water = assay type: physicochemical
From the text: As mentioned above, the compounds of formula (I) have the important advantage of having a greater solubility in water than acyclovir. Thus, the compounds of formula (I) wherein X is an oxygen atom and R is a hydroxy group or amino group have solubilities of 0.4 -.0.5% and 2 - 3% w/w respectively compared with a figure of 0.14% w/w for acyclovir.

[2] = tested on: Equine rhinopneumonitis virus (EHV-1); experiment: In vivo activity against equine rhinopneumonitis virus in hamsters (Example 14), intraperitoneal and oral; design: species or system Syrian weanling hamsters; details: Equid alphaherpesvirus 1, ip, 120 h; intraperitoneally for 5 days commencing 5 hours pre-infection; read-out: dose rate generally necessary to prevent any virus-induced mortality

Row | SMILES | Mean reciprocal survival time (herpes virus) | activity given orally to intracerebrally infected mice compared with acyclovir (herpes virus; same conditions) | deaths from virus-induced hepatitis ([1]; in 15 treated hamsters, 14 deaths in 15 untreated controls) | prevention of EHV-1 induced mortality ([1]; orally in drinking water, approximately 7 mg/kg/day) | Cumulative mortality (out of 15) on day ([1]; day 2) | Cumulative mortality (out of 15) on day ([1]; day 3) | Cumulative mortality (out of 15) on day ([1]; day 4+) | solubility (Solubility in water) [µg/mL] | minimal effective dose [2] [mg/kg/day]
1 | Nc1nc2c(ncn2COC(CO)CO)c(=O)[nH]1 [Example 759U, 9-[(2-hydroxy-1-hydroxymethylethoxy)methyl]guanine] | 0.15 | much greater than acyclovir | no deaths | completely prevented | 0 | 0 | 0 | – | –
2 | Nc1nc2c(ncn2COCCO)c(=O)[nH]1 [acyclovir, 9-(2-hydroxyethoxymethyl) guanine, reference compound] | 0.26 | – | – | – | – | – | – | 1400 (≈ 6.22 mM) | 100
